Where “and” joins values, the source holds several entries; their conditions need not be identical. Equal entries are not always repeated. Where two headings read alike, the source gives them in different places.
Key:
Assay type in all cases: in vivo
[1] = tested on: Phakopsora pachyrhizi; assay: Phakopsora pachyrhizi test in soybean (preventive, glasshouse); details: single compound
[2] = tested on: Septoria nodorum; assay: Parastagonospora nodorum/Septoria nodorum/Stagnospora nodorum test in wheat (preventive, glasshouse); details: single compound
Protocol: The single compounds or compound combinations were dissolved in 2% DMSO/Acetone and then mixed with water containing emulsifier to a calibrated spray volume of 50 mL. The spray solutions were poured into spray bottles for further applications.
To test the preventive activity of compounds, healthy young wheat plants, raised in the greenhouse, were sprayed with the single compound or mixture preparation at the stated application rates inside the spray cabinets using hollow cone nozzles. One day after treatment, the plants were inoculated with a suspension containing 2.8×10^6 Stagnospora nodorum inoculum. The inoculated plants were then kept in a greenhouse chamber at 22-25° C. temperature and 90-100% relative humidity for disease expression.
A visual assessment of the performance of the compounds and respective compound combinations was carried out by rating the disease severity (0-100% scale) on treated plants 3, 7 and 10 days after application. Efficacy (% control) of the compounds was calculated by comparing the disease rating in the treatment with the one of the untreated control. The compounds were also assessed for their plant compatibility by recording symptoms like necrosis, chlorosis & stunting. The results are shown for the compound of formula (I-1) to (I-5) in Table E1-E5.

[3] = tested on: Botrytis cinerea; assay: Botrytis cinerea test in tomato (preventive, glasshouse); details: single compound
[4] = tested on: Pyricularia oryzae; assay: whole plant or invertebrate; details: for Observed Efficacy: single compound, preventive spray, rice
[5] = tested on: Alternaria solani; assay: Alternaria solani test in tomato (preventive, glasshouse)
[6] = tested on: Erysiphe cichoracearum; assay: Erysiphe cichoracearum test in cucumber (preventive, glasshouse); details: single compound
[7] = 0.05 ppm, preventive spray on soybean
[8] = 0.1 ppm, preventive spray on soybean
[9] = Conc. 0.05 ppm, soybean, preventive, Table D4
[10] = Conc. 0.05 ppm, soybean, preventive, Table D5
[11] = Conc. 0.1 ppm, soybean, preventive, Table D4
[12] = Conc. 0.1 ppm, soybean, preventive, Table D5
[13] = Table F4, Conc. 0.05 ppm, Botrytis cinerea in tomato, preventive
[14] = Table F4, Conc. 0.1 ppm, Botrytis cinerea in tomato, preventive
[15] = Table F5, Conc. 0.1 ppm, Botrytis cinerea in tomato, preventive
[16] = Conc. 0.05 ppm, preventive spray on tomato, % control vs untreated
[17] = Conc. 0.1 ppm, preventive spray on tomato, % control vs untreated
[18] = Table B3, single compound, Conc. 0.05 ppm, preventive
[19] = Table B3, single compound, Conc. 0.1 ppm, preventive
[20] = Table B4, single compound, Conc. 0.05 ppm, preventive
[21] = Table B4, single compound, Conc. 0.1 ppm, preventive
[22] = single compound, 0.05 ppm, preventive
[23] = single compound, 0.05 ppm, preventive spray
[24] = single compound, 0.1 ppm, preventive
[25] = single compound, 0.1 ppm, preventive spray
[26] = 0.05 ppm, preventive spray on cucumber
[27] = 0.1 ppm, preventive spray on cucumber
[28] = Pyricularia oryzae, read-out: Observed Efficacy
[29] = Phakopsora pachyrhizi, 0.1 ppm, preventive spray on soybean, read-out: Observed Efficacy (%)
[30] = Phakopsora pachyrhizi, Conc. 0.05 ppm, soybean, preventive, Table D4, read-out: Observed Efficacy (%)
[31] = Parastagonospora nodorum, 0.1 ppm, read-out: Observed Efficacy (%)
[32] = Botrytis cinerea, Conc. 0.05 ppm, preventive spray on tomato, % control vs untreated, read-out: Observed Efficacy (%)
[33] = Botrytis cinerea, Conc. 0.1 ppm, preventive spray on tomato, % control vs untreated, read-out: Observed Efficacy (%)
[34] = Alternaria solani, single compound, 0.05 ppm, preventive spray, read-out: Observed Efficacy (%)
[35] = Alternaria solani, single compound, 0.1 ppm, preventive spray, read-out: Observed Efficacy (%)
[36] = Parastagonospora nodorum, 0.05 ppm, read-out: Observed Efficacy (%)
[37] = single compound, Conc. 0.05 ppm, preventive spray
[38] = Table F5, Conc. 0.05 ppm, Botrytis cinerea in tomato, preventive

Row | Compound | Observed Efficacy (%) [1, 7] | Observed Efficacy (%) [1, 8] | Observed Efficacy (%) [1, 9] | Observed Efficacy (%) [1, 10] | Observed Efficacy (%) [1, 11] | Observed Efficacy (%) [1, 12] | Observed Efficacy (%) ([2]; 0.05 ppm) | Observed Efficacy (%) [3, 13] | Observed Efficacy (%) [3, 14] | Observed Efficacy (%) [3, 15] | Observed Efficacy (%) [3, 16] | Observed Efficacy (%) [3, 17] | Observed Efficacy (%) [5, 18] | Observed Efficacy (%) [5, 19] | Observed Efficacy (%) [5, 20] | Observed Efficacy (%) [5, 21] | Observed Efficacy (%) [5, 22] | Observed Efficacy (%) [5, 23] | Observed Efficacy (%) [5, 24] | Observed Efficacy (%) [5, 25] | other results
1 | Cn1cc(C(=O)Nc2cccc3c2[C@@H]2CC[C@H]3C2=C(Cl)Cl)c(C(F)F)n1 (racemic) [Benzovindiflupyr, benzovindiflupyr] | 27% | 38% | 27% | 27% | 38% | 38% | 29% | 33% | 42% | 42% | 33% | 42% | 14% | 29% | 14% | 29% | 14% | 14% | 29% | 29% | Observed Efficacy ([4]; Conc. 0.05 ppm): 17%; Observed Efficacy (%) ([6]; 0.05 ppm, cucumber, preventive): 24%; Observed Efficacy (%) [6, 26]: 24%; Observed Efficacy (%) ([6]; 0.1 ppm, cucumber, preventive): 29%; Observed Efficacy (%) [6, 27]: 29%
2 | CCN(C)C=Nc1cc(C)cc(Cc2ccc(C)cc2)c1C [Compound (I-2), N′-(2,5-dimethyl-3-(4-methylbenzyl)phenyl)-N-ethyl-N-methylformimidamide] |  |  |  |  |  |  |  |  |  |  |  |  |  |  |  |  |  |  |  |  | pest or weed control at 0.0001 ppm ([1]; Phakopsora pachyrhizi, 0.0001 ppm, preventive spray on soybean, read-out: Observed Efficacy (%)): 47%; pest or weed control at 0.001 ppm ([1]; Phakopsora pachyrhizi, 0.001 ppm, preventive spray on soybean, read-out: Observed Efficacy (%)): 57%; pest or weed control at 0.01 ppm ([1]; Phakopsora pachyrhizi, 0.01 ppm, preventive spray on soybean, read-out: Observed Efficacy (%)): 68%; pest or weed control at 1 ppm ([2]; Parastagonospora nodorum, 1 ppm, read-out: Observed Efficacy (%)): 13%; pest or weed control at 5 ppm ([2]; Parastagonospora nodorum, 5 ppm, read-out: Observed Efficacy (%)): 23%; pest or weed control at 20 ppm ([2]; Parastagonospora nodorum, 20 ppm, read-out: Observed Efficacy (%)): 33%; pest or weed control at 1 ppm ([3]; Botrytis cinerea, Conc. 1 ppm, preventive spray on tomato, % control vs untreated, read-out: Observed Efficacy (%)): 23%; pest or weed control at 5 ppm ([3]; Botrytis cinerea, Conc. 5 ppm, preventive spray on tomato, % control vs untreated, read-out: Observed Efficacy (%)): 33%; pest or weed control at 20 ppm ([3]; Botrytis cinerea, Conc. 20 ppm, preventive spray on tomato, % control vs untreated, read-out: Observed Efficacy (%)): 53%; pest or weed control at 1 ppm [4, 28]: 13%; pest or weed control at 5 ppm [4, 28]: 23%; pest or weed control at 20 ppm [4, 28]: 37%; pest or weed control at 1 ppm ([5]; Alternaria solani, single compound, 1 ppm, preventive spray, read-out: Observed Efficacy (%)): 13%; pest or weed control at 5 ppm ([5]; Alternaria solani, single compound, 5 ppm, preventive spray, read-out: Observed Efficacy (%)): 23%; pest or weed control at 20 ppm ([5]; Alternaria solani, single compound, 20 ppm, preventive spray, read-out: Observed Efficacy (%)): 33%
3 | CC1COC(Cn2cncn2)(c2ccc(Oc3ccc(Cl)cc3)cc2Cl)O1 (stereo not shown) [Difenconazole, difenoconazole] |  |  |  |  | 24% | 24% |  | 42% | 52% |  |  |  |  |  |  | 47% | 42% |  | 47% |  | pest or weed control at 0.1 ppm [1, 29]: 24%; pest or weed control at 0.05 ppm [1, 30]: 17%; pest or weed control at 0.1 ppm [2, 31]: 32%; pest or weed control at 0.05 ppm [3, 32]: 42%; pest or weed control at 0.1 ppm [3, 33]: 52%; pest or weed control at 0.05 ppm [4, 28]: 24%; pest or weed control at 0.1 ppm [4, 28]: 26%; pest or weed control at 0.05 ppm [5, 34]: 42%; pest or weed control at 0.1 ppm [5, 35]: 47%; pest or weed control at 0.05 ppm ([5]; Alternaria solani, single compound, Conc. 0.05 ppm, preventive spray, read-out: Observed Efficacy): 42%; pest or weed control at 0.1 ppm ([5]; Alternaria solani, single compound, Conc. 0.1 ppm, preventive spray, read-out: Observed Efficacy): 47%
4 | O=C(NCCc1ncc(C(F)(F)F)cc1Cl)c1ccccc1C(F)(F)F [Fluopyram] |  |  | 7% | 7% | 10% | 10% |  | 38% | 45% |  |  |  | 26% | 35% | 26% | 35% | 26% |  | 35% |  | pest or weed control at 0.05 ppm ([1]; Phakopsora pachyrhizi, 0.05 ppm, preventive spray on soybean, read-out: Observed Efficacy (%)): 7%; pest or weed control at 0.1 ppm [1, 29]: 10%; pest or weed control at 0.05 ppm [2, 36]: 8%; pest or weed control at 0.1 ppm [2, 31]: 21%; pest or weed control at 0.05 ppm [3, 32]: 38%; pest or weed control at 0.1 ppm [3, 33]: 45%; pest or weed control at 0.05 ppm [5, 34]: 26%; pest or weed control at 0.1 ppm [5, 35]: 35%; pest or weed control at 0.05 ppm ([6]; Golovinomyces cichoracearum, 0.05 ppm, preventive spray on cucumber, read-out: Observed Efficacy (%)): 32%; pest or weed control at 0.1 ppm ([6]; Golovinomyces cichoracearum, 0.1 ppm, preventive spray on cucumber, read-out: Observed Efficacy (%)): 39%
5 | Cn1cc(C(=O)Nc2ccccc2-c2cc(F)c(F)c(F)c2)c(C(F)F)n1 [Fluxapyroxad, fluxapyroxad] |  |  |  | 46% |  | 59% | 3% |  |  |  |  | 38% | 40% | 56% |  |  |  | 40% |  | 56% | Observed Efficacy (%) ([2]; 0.1 ppm): 5%; Observed Efficacy ([4]; Conc. 0.05 ppm): 24%; Observed Efficacy ([4]; Conc. 0.1 ppm): 32%; Observed Efficacy [5, 37]: 40%
6 | C[C@@H]1CC(C)(C)c2cccc(NC(=O)c3cn(C)nc3C(F)F)c21 [Inpyrfluxam] | 18% | 30% | 18% |  | 30% |  | 12% | 25% | 38% | 38% | 35% and 25% | 38% |  |  | 14% | 23% |  | 14% |  | 23% | Observed Efficacy (%) ([2]; 0.1 ppm): 29%; Observed Efficacy (%) [3, 38]: 25%; Observed Efficacy (%) ([6]; 0.05 ppm, cucumber, preventive): 29%; Observed Efficacy (%) [6, 26]: 29%; Observed Efficacy (%) ([6]; 0.1 ppm, cucumber, preventive): 38%; Observed Efficacy (%) [6, 27]: 38%
7 | CON=C(C(=O)OC)c1ccccc1CON=C(C)c1cccc(C(F)(F)F)c1 [Trifloxystrobin, trifloxystrobin] |  |  |  |  | 32% | 32% |  | 26% | 33% |  |  |  |  | 40% |  |  |  |  |  |  | pest or weed control at 0.1 ppm [1, 29]: 32%; pest or weed control at 0.05 ppm [1, 30]: 22%; pest or weed control at 0.05 ppm [2, 36]: 5%; pest or weed control at 0.1 ppm [2, 31]: 18%; pest or weed control at 0.05 ppm [3, 32]: 26%; pest or weed control at 0.1 ppm [3, 33]: 33%; pest or weed control at 0.05 ppm [4, 28]: 24%; pest or weed control at 0.1 ppm [4, 28]: 32%; pest or weed control at 0.05 ppm [5, 34]: 33%; pest or weed control at 0.1 ppm [5, 35]: 40%
8 | propineb | 20% | 33% | 20% | 20% | 33% | 33% | 12% | 15% | 22% | 22% | 15% | 22% |  |  | 20% | 31% | 20% | 20% |  | 31% | Observed Efficacy (%) ([2]; 0.1 ppm): 24%; Observed Efficacy (%) [3, 38]: 15%; Observed Efficacy [5, 37]: 20%; Observed Efficacy (%) ([6]; 0.05 ppm, cucumber, preventive): 14%; Observed Efficacy (%) [6, 26]: 14%; Observed Efficacy (%) ([6]; 0.1 ppm, cucumber, preventive): 43%; Observed Efficacy (%) [6, 27]: 43%
